Measurements from patent US20050215548A1 (Cyclacel Limited, priority 2002, published 2005).
Residues, ends and D or L forms follow the SMILES beside them. *: point of attachment. Cbz = O=C(OCc1ccccc1)*; CH2F = FC*

Columns and labels:
AGS cells = experiment: Caspase activity (casp ACE assay), AGS; format: cell-based, human; conditions: 24 hours
Method: In more detail: (A) Cells were treated with […] [IC50] of compound 2 or cisplatinum and collected at the time points indicated. Cell lysates were prepared, the caspase activity was determined using the casp ACE assay and values were plotted on a graph. (B) Cells were treated with 5 times [IC50] of compound 2 or cisplatinum and collected at the time points indicated. AGS cells were also incubated with compound 2 in the presence of a caspase inhibitor Z-VAD.fmk. Cell lysates were prepared, the caspase activity was determined using the casp ACE assay and values were plotted on a graph.
To characterise the apoptosis-inducing properties of bisarylsulfonamides caspase ⅓ activty was measured. AGS or H1299 cells were treated with a low concentration of compound 2 or cisplatin corresponding to twice the IC50 value (FIG. 6A). Morphological changes were detected in 10-20% of cells by 72 hours corresponding to an induction of caspase activity first detected at 48 hours, increasing by 72 hours. We also treated AGS and H1299 cells with higher concentrations corresponding to five times the IC50 (FIG. 6B). In this experiment we included a […], Z-VAD.fmk to determine the caspase responsible.

[1] = system: AGS, H1299, MCF7 or SJSA1 cells; experiment: Cell morphology (cell rounding); format: cell-based, human; conditions: five times IC50
Excerpt: (§1) Equal amounts of cell lysate were separated by SDS-PAGE and analysed by immunoblotting using the indicated antibodies. An estimation of the extent of cell rounding is indicated above each lane. The arrow indicates the position of a 85-kDa cleavage product of PARP, indicative of apoptosis. (B) The effect of compound 2 on the levels of the cell cycle proteins in AGS cells (wild-type 53). […] Equal amounts of cell lysate were separated by SDS-PAGE and analysed by immunoblotting using the indicated antibodies. An estimation of the extent of cell rounding is indicated above each lane. (C) The effect of negative control compound (refer Example 10), compound 2, cisplatin, and anisomycin on the levels of key proteins in MCF7 cells. […] Cisplatinum and anisomycin (a transcription inhibitor) treatments were with 50 μM or 37 μM, respectively. Cells were harvested at various time points; afterwards lysates were prepared and separated by SDS-PAGE and analysed by immunoblotting. The proteins detected are indicated. The extent of rounded or floating cells and the percentage viable cells were assessed. […] Equal amounts of cell lysate were separated by SDS-PAGE and analysed by immunoblotting using a range of antibodies. An estimation of the extent of cell rounding is indicated above each lane. […] SJSA1 cells were treated with 5 times [IC50] of compound 2 and collected at the indicated time points. Equal amounts of cell lysate were separated by SDS-PAGE and analysed by immunoblotting using a range of antibodies. An estimation of the extent of cell rounding is indicated above each lane.
Cells were treated with 5 times [IC50] of compound 2 and collected at various time points. The percentage of rounded cells was counted before cells were trypsinised and counted for cell viability using trypan blue.
Cells were lysed and equal amounts were analysed by SDS-polyacrylamide gel electrophoresis (SDS-PAGE) and immunoblotting. […] The reduction in E2F-1 levels correlated with reduction in E2F transcriptional activity as determined by an E2F-dependent luciferase reporter assay (refer Example 6).

SJSA-1 = experiment: 72-h MTT cytotoxicity assay, SJSA-1; format: cell-based; conditions: Homo sapiens, SJSA-1; 72-h MTT; Table 1; read-out: IC50 Anti-proliferative effect on cell line SJSA-1
Procedure, shortened: (§2)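 Anti-proliferative activity was measured by standard 72-h MTT assay. AGS is gastric adenocarcinoma with wild-type p53; H1299 is p53-null large cell lung carcinoma with low HDM2; SJSA-1 is bone sarcoma with wild-type p53 and overexpressed HDM2.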

H1299 = experiment: 72-h MTT cytotoxicity assay, H1299; format: cell-based; conditions: Homo sapiens, NCI-H1299; 72-h MTT; Table 1; read-out: IC50 Anti-proliferative effect on cell line H 1299
Procedure, shortened: as §2

HDM2 = biological target: T1, HDM2 (Homo sapiens, UniProt Q00987); experiment: Fluorescence polarisation competitive HDM2 binding assay; conditions: text of Example 10, refer Table 1; read-out: competitive inhibition IC50
T1 construct: Recombinant HDM2 (1.5 μg per well) in TBS-BSA buffer
Procedure, shortened: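 Recombinant HDM2 (1.5 μg/well) was preincubated 5 min at room temperature with serially diluted compound in 50 mM Tris pH 7.4, 150 mM NaCl, 0.1% BSA, 5% DMSO final. Fluorescein-labelled p53 peptide (0.2 μM) was then added for 45 min. Polarisation was read at 485/520 nm and IC50 derived from dose-response curves.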

AGS = experiment: 72-h MTT cytotoxicity assay, AGS; format: cell-based; conditions: Homo sapiens, 72-h MTT, Table 1, read-out: IC50 Anti-proliferative effect on cell line AGS
Procedure, shortened: as §2

[2] = system: key proteins in the HDM2 pathway; experiment: SDS-PAGE and immunoblotting of key proteins in the HDM2 pathway; format: cell-based, human
Excerpt: as §1, with “The arrow indicates the position of a 85-kDa cleavage product of PARP, indicative of apoptosis.” left out
Many types of cellular stress converge on the p53 pathway and induce its activity. […] The biological effect of bisarylsufonamides on cellular level was studies using representative compounds (mainly compound 2) and number of cell lines with different HDM2 and p53 status. These were overexpressing Hdm2 (SJSA1—osteosarcoma), wild type p53 and normal levels of HDM2 (AGS—gastric adenocarcinoma, MCF7—breast adenocarcinoma), or p53 null, low levels of HDM2 (H1299—large cell lung carcinoma).
Cells were lysed and equal amounts were analysed by SDS-polyacrylamide gel electrophoresis (SDS-PAGE) and immunoblotting.

T1 sequence (Q00987 whole entry): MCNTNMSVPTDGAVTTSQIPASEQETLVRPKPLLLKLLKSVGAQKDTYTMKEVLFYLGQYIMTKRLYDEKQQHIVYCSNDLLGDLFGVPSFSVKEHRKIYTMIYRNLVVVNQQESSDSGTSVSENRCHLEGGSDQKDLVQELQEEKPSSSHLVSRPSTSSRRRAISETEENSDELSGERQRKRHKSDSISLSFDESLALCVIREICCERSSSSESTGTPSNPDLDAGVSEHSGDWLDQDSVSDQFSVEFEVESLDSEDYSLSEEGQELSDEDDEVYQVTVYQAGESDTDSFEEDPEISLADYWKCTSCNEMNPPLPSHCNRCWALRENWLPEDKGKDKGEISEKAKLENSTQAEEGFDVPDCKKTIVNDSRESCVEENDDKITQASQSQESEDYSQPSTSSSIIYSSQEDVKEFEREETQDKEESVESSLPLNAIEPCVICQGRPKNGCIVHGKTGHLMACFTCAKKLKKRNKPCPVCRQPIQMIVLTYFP

In the case of `COC(=O)C[C@H](NC(=O)[C@H](C)NC(=O)[C@@H](NC(=O)OCc1ccccc1)C(C)C)C(=O)CF` [Z-VAD.fmk, reference compound] (Cbz-Val-Ala-Asp(OMe)-CH2F), the “caspase activity induced by compound 2 in presence of caspase inhibitor” value (AGS cells) is reported as “reduced the caspase activity to background levels”.
`O=[N+]([O-])c1csc(S(=O)(=O)Nc2ccc(Cl)cc2)c1` [Compound 69, 4-Nitro-thiophene-2-sulfonic acid (4-chloro-phenyl)-amide] was tested, and the cell rounding [1] was “No rapid cell rounding”, the IC50 (SJSA-1) was 28 µM and the IC50 (H1299) was 30 µM. The IC50 (HDM2) was 151 µM, the IC50 (AGS) was 19 µM and the “PARP cleavage / PARP levels” value ([2]; five times IC50, 85-kDa cleavage product marker for apoptosis) was “Rapid reduction in PARP levels”. For the same molecule, the “changes in protein levels and cell morphology” value ([2]; negative control: MCF7, 13.5 μM, 68/69: MCF7 and H1299 at five times IC50 of 69, 49: AGS, SJSA1, H1299) was “induced changes in both morphology and protein levels”.
